From US8546322B2, “Inhibitors of intracellular urokinase plasminogen activator and methods of use thereof” (The Regents of the University of California, priority 2007, dated 2013)
“Also recorded” adds a separate entry of the source. Read-outs that look alike come from different tables or passages of the source. *1 amine or outer side, *2 acyl side, *3 side chain or, on linkers, in order; H or OH if unused. Where a SMILES comes first, the peptide text is derived from it. [ ]: non-standard residue; d: D form. X1 = N=C(N)NC(=O)c1nc(Cl)c(N(CC(=O)[*:2])[*:1])nc1N

Experiments:
[1] = Incubation in buffer solutions without enzymes; assay type: physicochemical
Description: (§1) Compound 3b is a C5am-Gly-peptide conjugate containing two D-amino acids, and compound 3c is a C5 am-Gly-peptide conjugate coupled to a peptide to generate an analog of opioid peptides that cross the blood brain barrier (BBB). The resultant conjugates (compounds 3a-c) were tested for selective cleavage by the brain peptidase enkephalinase (neutral endopeptidase 24.11; Calbiochem) via incubation for 24 h in the presence or absence of the enzyme, and aliquots from the reaction solutions were then analyzed by LCMS to identify the C5am-Gly conjugate (compound 3a), starting material, and enzymatic cleavage products (see, Scheme 3). As negative control experiments, the conjugates were analyzed following treatment with (1) bovine pancreatic trypsin (Calbiochem) or (2) the buffer solutions without enzymes.

[2] = biological target: T1, bovine pancreatic trypsin (Bos taurus, UniProt P00760); assay: LCMS trypsin digest (negative control enzyme); assay type: biochemical; details: LCMS after incubation with enzyme
T1 construct: purchased Calbiochem; host or cells: bovine pancreas
T1 sequence (P00760 24-246): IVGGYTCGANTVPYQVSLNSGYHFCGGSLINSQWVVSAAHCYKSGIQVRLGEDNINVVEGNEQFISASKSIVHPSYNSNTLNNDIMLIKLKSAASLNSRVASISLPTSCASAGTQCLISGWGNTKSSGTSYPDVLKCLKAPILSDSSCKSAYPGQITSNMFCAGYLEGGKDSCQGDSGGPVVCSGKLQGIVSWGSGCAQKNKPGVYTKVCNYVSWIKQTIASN
Description: as §1

rat breast cancer = details: in vivo; cited from earlier work
[3] = phase II; cited from earlier work
uPA = biological target: T2, uPA (Homo sapiens, UniProt P00749); assay: uPA enzymatic inhibition with peptide-specific fluorogenic substrates; assay type: biochemical
T2 construct: uPA, tPA, and MMP-2 and MMP-9 enzymatic activities secreted by and contained within glioma cell lines; endogenous in cells; host or cells: U87 and other human glioma cell lines (homogenates, conditioned media)
Description: uPA, tPA, and MMP-2 and MMP-9 enzymatic activities secreted by and contained within glioma cell lines, normal astrocyte cultures, primary rat brain, and intracranial glioma xenograft homogenates are measured using commercial peptide analog substrates, that become fluorescent when enzymatically cleaved. Recombinant tPA was obtained from ASSAYPRO, CT1001.

NHE1 = biological target: T3, NHE1 (Homo sapiens, UniProt P19634); assay: Sodium-proton exchange (NHE1) inhibition in glioma cells (BCECF fluorometry); assay type: cell-based
T3 construct: endogenous in cells; host or cells: glioma cell lines (U87)
T3 sequence (P19634 whole entry): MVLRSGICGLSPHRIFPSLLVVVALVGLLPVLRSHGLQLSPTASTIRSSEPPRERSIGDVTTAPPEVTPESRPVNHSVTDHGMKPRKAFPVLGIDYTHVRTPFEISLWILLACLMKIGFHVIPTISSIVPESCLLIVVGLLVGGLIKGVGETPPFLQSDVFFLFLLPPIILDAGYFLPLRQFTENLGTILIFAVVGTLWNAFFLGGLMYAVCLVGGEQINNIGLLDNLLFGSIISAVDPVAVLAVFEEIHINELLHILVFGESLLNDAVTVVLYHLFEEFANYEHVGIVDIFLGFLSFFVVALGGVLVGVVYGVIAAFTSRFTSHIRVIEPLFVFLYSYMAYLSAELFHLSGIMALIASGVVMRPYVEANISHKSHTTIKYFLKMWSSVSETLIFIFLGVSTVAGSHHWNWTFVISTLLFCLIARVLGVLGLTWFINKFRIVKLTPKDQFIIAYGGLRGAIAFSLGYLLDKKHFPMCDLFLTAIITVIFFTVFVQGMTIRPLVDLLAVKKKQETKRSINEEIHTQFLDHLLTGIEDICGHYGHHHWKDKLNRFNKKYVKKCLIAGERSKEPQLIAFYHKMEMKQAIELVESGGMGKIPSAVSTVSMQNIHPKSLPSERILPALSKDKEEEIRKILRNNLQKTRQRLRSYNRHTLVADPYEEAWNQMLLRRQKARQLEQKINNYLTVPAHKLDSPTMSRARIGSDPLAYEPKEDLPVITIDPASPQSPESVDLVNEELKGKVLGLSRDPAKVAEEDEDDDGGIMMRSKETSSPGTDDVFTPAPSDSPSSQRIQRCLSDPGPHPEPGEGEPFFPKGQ
Description: Sodium-proton type 1 (NHE1) and sodium-calcium transport (NCX) measurements in glioma cells. Inhibition of NHE in glioma cell lines using BCECF and quantitative fluorometry are routinely measured (McLean, L. A., et al., Malignant gliomas display altered pH regulation by NHE1 compared with nontransformed astrocytes. Am J Physiol Cell Physiol, 2000. 278(4): p. C676-88). IC50 of NCX transport bidirectionally is measured using whole cell patch clamping bidirectional NCX inhibition using a HEK-293 cell line transfected with NCX 1.1 obtained from J. Lytton (Dong, H., J. Dunn, and J. Lytton, Stoichiometry of the Cardiac Na+/Ca2+ exchanger NCX1.1 measured in transfected HEK cells. Biophys J, 2002. 82(4): p. 1943-52).

U87 glioma cells [4] = assay: U87 glioma cell adherence to extracellular matrix (ECM); assay type: cell-based, human; details: for activity at 250 µM: Homo sapiens, U-87 MG, U87 cells on ECM, 4 h, read-out: % of control attachment at 4 h
Description: As shown in FIGS. 4A and B and, U87 glioma cells in logarithmic growth were trypsinized and washed ×1 with PBS. 4×10^5 cells were plated on to each ECM-coated well that was treated as indicated. Cells were monitored for adherence to the ECM. The numbers of attached cells in each well were manually counted using interference microscopy after 4 hours when adherence was complete. Experiments were performed in triplicate for each treatment and data expressed as mean+S.D. **statistically signif at P<0.001. Glioma cell morphology 4 h after plating as visualized by phase contrast microscopy.
To study adherence, wells in 24-well plates are coated with 200 ul of PBS (CMF Dulbecco's) containing one of the following ECM substrates: {i} […] {ii} vitronectin {iii} fibronectin {iv} lamininin-5. Plates are incubated 1 h at 37° C. then wells are washed once with prewarmed serum-free DMEM and the drug added to each well. Each treatment group, consisting of pretreated glioma cells (3×10^3 cells/well) is plated into 6 wells, and adhesion is evaluated at 60 min intervals over a 6-18 hour period, depending of the cell line. Unbound cells are gently dislodged with Dulbecco's PBS, while counting adherent cells in 10 random fields per each well under 10× magnification using an inverted microscope with interference phase optics and an ocular grid (21 mm^2). During the same time intervals, the percent value of spread cells with respect to adherent cells is evaluated.

U87 glioma cells [5] = assay: U87 proliferation and survival, tetrazolium (WST) live cell assay and manual cell counts; assay type: cell-based, human; details: for activity at 250 µM: Homo sapiens, U-87 MG, 48 h treatment, read-out: cell numbers as % of control at 48 h (WST assay)
Description: Proliferation of U87 glioma cells was inhibited by AmC(5)-GlyOBn at 24 h. […] Manual cell counts, coupled with the trypan blue exclusion assay, determined the number of viable cells at 24 h and 48 h. Three separate experiments (n=6/exp) with S.D. as shown, *significance at P<0.01. Removal of AmC(5)-GlyOBn at 24 h caused cell numbers to increase by 48 h, as compared with U87 glioma cell numbers that continued to be treated with the drug for 48 h (Table 1).
Total live cell numbers per well were determined using a tetrazolium assay (WST).
WST […] that can be reduced in attached and detached live cells to formazon that is detected spectrophotometrically. Formazon formation has been determined to be proportional to glioma cell number for U87MG, U251, U373, and primary astrocytes. Absorbances are measured at 570 nm using a microtiter plate reader. Mean background absorbances of cell-free media (630 nm) are subtracted from these values. […] Identical concentrations of glioma cells are grown until 50% confluent on 60 mm plates. Following drug treatments, floating cells in media are collected and combined with adherent cells that were harvested following 0.25% v/v trypsin for 5 minutes (37° C.). The combined fractions are centrifuged at 350×g for 5 min. The resultant cell pellet is resuspended in equal volumes of PBS-CMF with 0.4% trypan blue.

U87 glioma cells [6] = assay: U87 cell death, manual cell counts with trypan blue exclusion; assay type: cell-based, human; details: for % cell death, trypan blue: 250 microM, 48 h treatment
glioma cells = assay: Glioma cell volume in vitro and in intracerebral xenografts (7 tesla NMR); assay type: cell-based
U87 glioma cells [7] = assay: Cell permeation by fluorescent microscopy of U87 glioma cells; assay type: cell-based; details: 50 μM, 90-180 min incubation
Description: 27). The fluorescent extinction coefficient of each compound is determined using a spectrofluorometer and permits semi-quantitative estimations of intracellular drug accumulation.
U87 glioma cells were incubated with 50 uM of each compound for 180 min followed by washing the cells ×2 with PBS.

[8] = in vivo; cited from earlier work
[9] = tested on: intracerebral human U87 glioma xenografts; assay: Intracerebral U87 glioma xenograft growth (NMR, stereology); assay type: in vivo, athymic rats
Description: The volume of U87 glioma xenografts were measured at different postimplantation times using the small animal 7 tesla NMR facility on UC Davis campus.
Determining tumor doubling time (hrs) in U87 xenografts were measured using small animal NMR.
Pretreatment of athymic rats with intracranial AmC(5)Gly-OBn for 3 days prior to implantation achieved steady-state brain levels as measured by HPLC-fluorometry. Following glioma cell implantation, once daily intracranial administration was continued for 10 days.
Rats (250-280 gm) are intubated with 4% isoflurane and air:O2 (2:1), maintained on 2% isoflurane, and placed into a Kopf stereotactic apparatus. Glioma cells at are harvested at 80% confluence, trypsinized, and then washed three times in sterile, isotonic phosphate buffered saline. Cells are counted in a hemocytometer and diluted to a final concentration of 1×10^4 cells per microL. 5 microL of glioma cells (5×10^4) are stereotaxically injected into a 0.5 mm pocket made by a 23 gauge needle in the left anterior corpus striatum (−1 mm bregma, +4 mm left lateral, −5.0 mm depth) under sterile conditions in a laminar flow hood.
Prior to imaging the rats are administered 0.5 cc of OMNISCAN gadodiamide intraperitoneally (NYCOMED). […] A gradient recalled echo sequence is obtained which furnished a single slice in sagittal, coronal, and transverse orientations (‘triplot’) and which served as a scout image to ensure proper positioning of the animal. Spectroscopic images are obtained with a 7 Tesla (300 MHz) BRUKER BIOSPEC 70/20 system with a 210 mm horizontal bore equipped with B-GA12 shim coils driven by BRUKER Shim Power Supply with a maximum of 2A of current for each shim. S116 birdcage design resonator coil (maximum current: 100 A and maximum voltage: 150V) of 72 mm maximum sample diameter with gradient strength of 200 mT/mm was used for both. T1-weighted images (TR/TE=500/20 msec) are obtained using the standard spin echo sequence in the transverse, sagittal as well as in the coronal direction. […] Multiple contiguous slices separated by 1 mm are collected using 3 sinc pulses each of 2 msec duration, and which cover the entire tumor in one scan. The average scan time is approx 60 sec for the entire T1-weighted protocol.
Cavalieri's method estimates the volume of a structure (in our case, glial tumor) by measuring the area of the structure in a number of evenly spaced “two-dimensional” sections. In our in vivo tumor model, the procedure involves a systematically random collection of 10 sections evenly spaced through the entire tumor. To perform this, the brain is cut into 40 micron coronal sections and every section is collected to encompass the entire tumor. When the anterior most portion of the tumor becomes visible in the series of sections, a die is thrown to determine if the first, second, third, fourth, or fifth section from that point should be the initial section saved for staining and area analysis. Henceforth, every tenth section is stained and tumor area measured. This ensures that each section through the tumor has an equal probability of being analyzed. Tumor area is estimated with suitable precision by applying to each section a point grid with a known area associated with each point (a/p). Tumor volume (V) is then calculated using the formula: V=(T)·(a/p) delta Pi; where T=distance between sections, P=points landing on the tumor on the ith section.

[10] = Neuropathology and behaviour with intracranial administration; assay type: in vivo
Excerpt: […]. For amiloride, parasaggital sections were stained with hematoxylin and eosin in addition to using specialized stains for neuronal damage (FluoroJade) and for myelinated fiber tracts (luxol fast blue). […].
. Each experimental and control group described below consist of a minimum of 10 animals per group. Experimental Design. The in vivo toxicity studies initially employ single, daily intracranial infusions of the candidate compound into a group of Sprague-Dawley rats for 13 days. Treated S-D animals are compared to a group of 10 control animals receiving intracranial drug vehicle injections. The infused drug concentration is based upon the cell line studies and adjusted for the low protein content of the cerebrospinal fluid which is 0.2% that of serum. Animals are behaviorally assessed for toxicity. […]. General Health and Behavioral Studies. Body weights and behavioral parameters are assessed daily in drug-treated and vehicle-treated rats during 12 day treatment paradigms. Currently, standardized behavior tests are used, which include quantitative measures of vestibulomotor function, fine motor coordination, ambulation, and spatial memory. A daily neurotoxicity behavioral sign checklist (72) to detect neurological signs of toxicity and seizures is also performed. Acquisition of spatial memory is particularly sensitive for detecting subtle drug toxicities (Preliminary Results). Body weight is used as a measure of general health. Neuropathological Studies: Cytological studies are performed in the same drug-treated and vehicle-treated rats at the conclusion of behavioral testing. Fixation and sectioning techniques are described in the Experimental Methods section. Hematoxylin and eosin are used routinely to survey for neuropathological changes. Luxol fast blue stains myelin tracts to evaluate potential white matter changes. […] Assessment of brainstem white matter tracts with luxol fast blue staining includes the spinocerebellar, vestibulospinal, corticospinal, spinothalamic. Specialized stains for reactive astrocytes, neuronal chromatolysis, etc. are added if brain lesions are detected. […]. Potential Problems and Alternatives. […]. […] These behavioral studies indicate the need to behaviorally assess treatment of the glioma tumor models.

With `CC(C)C[C@@H](NC(=O)[C@H](Cc1ccccc1)NC(=O)CNC(=O)[C@@H](C)NC(=O)CNc1nc(N)c(C(=O)NC(=N)N)nc1Cl)C(=O)O` [Compound 3b, C5am-Gly-D-Ala-Gly-Phe-D-Leu-OH] (H-[X1][dA]GF[dL]-OH) the “stability in control (buffer) digestion (in words)” value [1] was “not cleaved” and the “cleavage by trypsin (in words)” value [2] was “not cleaved”.
For `CCOC(=O)N1CCN(C(=O)[C@H](Cc2cccc(C(=N)N)c2)NS(=O)(=O)c2c(C(C)C)cc(C(C)C)cc2C(C)C)CC1.Cl` [WX-UK1], the “metastasis and primary tumour growth (in words)” value (rat breast cancer) is listed as “suppresses rat breast cancer metastasis” and the “toxicity in clinical trials (in words)” value [3] is listed as “non-toxic”.
For `N=C(N)NC(=O)c1nc(Cl)c(NCC(=O)O)nc1N` [AmC(5)Gly, amilorideC(5)-glycine-OH], the “inhibition of uPA (in words)” value (uPA) was “reversible and micromolar inhibitor”, the “inhibition of uPA (in words)” value (uPA; listed as AmC(5)-Gly-OH) was “selectively inhibit” and the “inhibition of uPA (in words)” value (uPA; listed as AmC(5)Gly-OH) was “micromolar range”. The “inhibition of uPA (in words)” value (uPA; listed as AmC(5)GlyOH) was “reversibly and comparably inhibit”, the “stability in control (buffer) digestion (in words)” value [1] was “unaffected” and the “inhibition of NHE1 (in words)” value (NHE1) was “reversible and micromolar inhibitor”. The IC50 (NHE1; glioma cells) was 10 to 100 nM, the “potency of NHE1 inhibition relative to amiloride” value (NHE1; glioma cells) was 100-1000 times and the “inhibition of NHE1 (in words)” value (NHE1; listed as AmC(5)Gly-OH) was “micromolar range”. For the same compound, the “inhibition of NHE1 (in words)” value (NHE1; listed as AmC(5)GlyOH) was “reversibly and comparably inhibit”, the “inhibition of NHE1 (in words)” value (NHE1; listed as C5am-Gly) was “rapidly reversed” and the “cleavage by trypsin (in words)” value [2] was “unaffected”. The “glioma cell adherence to ECM (in words)” value (U87 glioma cells [4]) was “does not affect”, the activity at 250 µM (U87 glioma cells [4]) was 85 ± 15% and the “glioma cell proliferation (in words)” value (U87 glioma cells [5]) was “does not affect”. The activity at 250 µM (U87 glioma cells [5]) was 93%, the “% cell death, trypan blue” value (U87 glioma cells [6]) was “(5) %” and the “glioma cell death / viability (in words)” value (U87 glioma cells [6]; 48 h) was “does not affect”. The “glioma cell volume (in words)” value (glioma cells) was “shrink glioma cell volumes”, the “glioma cell volume (in words)” value (glioma cells; listed as AmC(5)Gly-OH) was “does reduce glioma cell volume” and the “cell permeation (in words)” value (U87 glioma cells [7]) was “does not permeate glioma cells”. For the same compound, the “cell permeation (in words)” value (U87 glioma cells [7]; listed as AmC(5)Gly-OH) was “does not permeate cells” and the “cell permeation (in words)” value (U87 glioma cells [7]; listed as AmC(5)GlyOH) was “does not”.
For `NC(=NCc1ccc(Cl)cc1Cl)NC(=O)c1nc(Cl)c(N)nc1N` [DCB, 2,4-dichlorobenzamil], the “toxicity (in words)” value [8] is given as “highly toxic and causes lethality when administered”.
`NC(N)=NC(=O)c1nc(Cl)c(N)nc1N` [Amiloride, 3,5-diamino-6-chloro-N-(diaminomethylene)pyrazinecarboxamide] gave a Doubling time ([9]; 10 mM amiloride reservoir (Alzet pump, infused days 12-17), day 10 post implant) of 3.07 h, a Doubling time ([9]; 10 mM amiloride reservoir, day 12 post implant) of 3.4 h and a Doubling time ([9]; 10 mM amiloride reservoir, day 15 post implant) of 3.99 h. It also gave a Doubling time ([9]; 10 mM amiloride reservoir, day 17 post implant) of 4.44 h, a Doubling time ([9]; 100 mM amiloride reservoir, 276 pmol/24 h (infused days 12-17), day 10 post implant) of 1.23 h and a Doubling time ([9]; 100 mM amiloride reservoir, 276 pmol/24 h, day 12 post implant) of 1.98 h. The Doubling time ([9]; 100 mM amiloride reservoir, 276 pmol/24 h, day 15 post implant) was 4.58 h, the Doubling time ([9]; 100 mM amiloride reservoir, 276 pmol/24 h, day 17 post implant) was 11.65^++ hrs and the “xenograft tumor growth (in words)” value ([9]; intracranial administration) was “significantly slowed the growth rate”. The “behavioral side effects and seizures (in words)” value ([10]; efficacious intracranial administration) was “observed”, the “neuropathological changes in normal brain cell types (in words)” value ([10]; intracranial administration, 10-14 days) was “Neither compound produces neuropathological changes; also recorded: Neuropathological changes were not observed” and the “animals with intermittent seizures” value ([10]; intrathecal amiloride infusion, S-D male rats) was 3 of 8. For the same compound, the “spatial memory (in words)” value ([10]; intrathecal infusion) was “modestly affect spatial memory; also recorded: problems with spatial memory that persisted throughout the nine day infusion period”, the “premature deaths (in words)” value ([10]; rat, in vivo) was “no premature deaths” and the “motor performance (in words)” value ([10]; rats with intracerebral glioma xenografts, infusion) was “did not alter motor performance”. For the same compound, the activity at 250 µM (U87 glioma cells [4]) was 58 ± 12%, the activity at 250 µM (U87 glioma cells [5]) was 31% and the “% cell death, trypan blue” value (U87 glioma cells [6]) was “(57) %”. The “cell permeation (in words)” value (U87 glioma cells [7]) was “rapidly permeate cells”.
In the case of `CC(C)C[C@H](NC(=O)[C@H](Cc1ccccc1)NC(=O)CNC(=O)CNC(=O)CNC(=O)CNc1nc(N)c(C(=O)NC(=N)N)nc1Cl)C(=O)O` [Compound 3c, C5am-Gly-Gly-Gly-Gly-Phe-Leu-OH] (H-[X1]GGGFL-OH), the “cleavage by trypsin (in words)” value [2] is reported as “did not generate C5am-Gly”.
